Reference: patent US9212209B2, “Screening methods for spinal muscular atrophy” (Indiana University Research and Technology Corporation, priority 2012, dated 2015)
Converted amounts (≈) assume the structure as drawn. “And” between values parts separate entries of the source, which are not always exact repeats. Equal values may be shown once. Read-outs that look alike come from different tables or passages of the source.

Assays:
SMN2-luciferase reporter [1] = test: SMN2-luciferase reporter assay (clonal HEK-293 SMN2-luc cells); type: cell-based, human; design: increase of luciferase activity: dose or concentration left out as unconfirmed; details: for Maximum % activation: Table 7; for Na-But RLU ave: 0.5 mg/mL sodium butyrate; for S/B: 0.5 mg/mL sodium butyrate vs DMSO
[2] = Liver microsome stability; details: for Stabilityin liver microsomes: Table 8; for Stability: Table 9; for half-life: mouse, liver microsomes
SMA mice = test: SMA mice, intraperitoneal dosing: lifespan, weight, time to right; type: in vivo, mouse; details: for lifespan / weight of the treated animals: IP once daily post-natal day 1-10, compounds in 20% DMSO, words; for lifespan: 3-4 animals each; for Time to right: individual pup, raw data
Protocol: The animal studies included new derivatives of LDN-76070 and LDN-75654. Mice were injected intraperitoneally once daily from post-natal day 1-10. […] Compounds LDN-212014, LDN-212016, LDN-212351, and LDN-212391 were injected into a cohort of animals (3-4 each). […] In the Kaplan-Meier curve that DMSO control decreased survival by 50%—the compounds were in […] (FIG. 26A).
LDN-212014 and LDN-76070 were further tested in A7 SMA model mice. Mice were dosed using compounds dissolved in 100% DMSO injected at 20 mg/kg with each dose administered once daily by intraperitoneal injection. As shown in the black curves in the Kaplan-Meier plot, control animals lived 4-5 days longer than the DMSO vehicle treated animals, indicating toxicity. […] In fact, the compounds display a statistically significant increase in survival compared with the untreated animals. These compounds extend the lifespan of SMA mice despite the DMSO toxicity.
In ‘time to right’ experiments, animals are placed on their backs and the duration for animals to right themselves is recorded. Animals that are unable to right in less than 30 seconds are scored as a failure. DMSO treated animals were unable to right themselves, while a small percentage of untreated animals display the ability to right themselves for up to postnatal day (PND) 11. A larger percentage of treated animals can right themselves past PND 17, and in the case of one animal as late as PND 21.

[3] = Solubility in PBS / aqueous solution; type: physicochemical
SMN2-luciferase reporter [4] = test: SMN2-luciferase reporter assay (clonal HEK-293 SMN2-luc cells); type: cell-based, human; details: for S/B: 0.5 mg/mL sodium butyrate vs DMSO
[5] = test system: SMN-luciferase transcripts; test: qRT-PCR of SMN-luciferase transcripts in SMN2-luc cells; type: cell-based, human; details: 24 hours, relative to DMSO, normalized to GAPDH, aclarubicin at 300 nM, words
Protocol: Compounds were tested at three concentrations that display maximal activity in the luciferase assay. Cells were treated as described above for the luciferase assay. Cells were harvested by trypsinization, neutralized with trypsin inhibitor, and washed. RNA was isolated from the cells using TRIZOL Reagent (Invitrogen 15596-026). cDNA was generated using the IMPROM-II Reverse Transcription System (Promega A3801).
The forward primer pair recognizes the exon 5-6 junction, which includes a restriction site that was engineered into the reporter and will exclude amplification of endogenous SMN mRNA. The reverse primers recognize either exon 7 or luciferase for detection of full-length or total SMN-luciferase transcripts respectively. For a reference control, cDNA from the housekeeping gene glyceraldehyde-3-phosphate dehydrogenase (GAPDH) was amplified. The primers used include SMN exon5-forward ([…]) (SEQ ID NO: 3), luciferase-reverse ([…]) (SEQ ID NO: 4), exon7-reverse ([…]) (SEQ ID NO: 5), GAPDH-reverse (G3A) ([…]) (SEQ ID NO: 6) and GAPDH-forward (G3S) ([…]) (SEQ ID NO: 7). qPCR was performed as described in the protocol for iQ SYBRGREEN SUPERMIX (Biorad 170-8882) using an EPPENDORF Mastercycler ep realplex^4 Thermo Cycler. Reactions were incubated for a 10 minute, 94° C. hot start followed by 45 cycles of the following: 94° C. for 45 second, 60° C. for 15 seconds, 72° C. for 45 seconds. Melting curves for each reaction were obtained. Each sample was assayed in triplicate and every plate contained a 5-point cDNA dilution course to calculate amplification efficiency for each primer pair. The Pfaffl method was used to determine the change in transcript levels relative to the DMSO and normalized to GAPDH (Pfaffl, M. W., “A new mathematical model for relative quantification in real-time RT-PCR,” Nucleic Acids Res 2001, 29(9), 3e45).
Based on the new reporter design, it was predicted that this screen could detect increased SMN-luciferase protein levels caused by compounds that stimulate SMN2 transcription, exon 7 inclusion, or by increasing the half-life of the SMN mRNA or protein. Quantitative reverse transcriptase PCR (qRT-PCR) was used to analyze SMN-luciferase mRNAs. All assays used RNA from control and compound-treated SMN2-luc cells and primers pairs were chosen to amplify only the SMN-luciferase derived transcripts (FIG. 4A). A pair of primers were used that specifically detects both full-length (exon 7 included) and Δ7 (exon 7 excluded) SMN-luciferase transcripts (primers 1 and 3). To measure changes in exon 7 splicing efficiency, a primer pair was used that detects only the full-length (exon 7 included) SMN-luciferase transcript (primers 1 and 2).
For each sample, the percent increase in the amount of total SMN-luciferase transcripts (gray bar) and exon 7 included full-length SMN-luciferase transcripts (white bar) was plotted (FIG. 4). Compounds that increase transcription should show increased total SMN-luciferase transcripts (gray bar) with a proportional increase for exon 7 included transcripts (white bar), assuming that proper splicing of exon 7 is not rate limiting. Compounds that stimulate exon 7 inclusion should increase the amount of exon 7 included full-length transcript (white bar) detected with little to no change in the expression of total SMN-luciferase transcripts (gray bar). In these experiments, cells were treated with compound, harvested, and each cell pellet was divided for isolation of RNA and to assay luciferase activity. Each qRT-PCR sample was normalized to the housekeeping gene glyceraldehyde-3-phosphate dehydrogenase (GAPDH). The Pfaffl method was used to calculate the change in the amount of total SMN mRNA and determine whether compound treatments increased SMN transcripts.

[6] = Homo sapiens, HEK293, Table 7, read-out: EC50
[7] = Homo sapiens, HEK293, reporter assay, Table 6, read-out: Ec50
[8] = T1/2 in liver microsomes, Table 7
[9] = PBS, aqueous buffer, read-out: Maximal solubility in PBS
[10] = aqueous solution, Table 8, grades, read-out: Solubility in aqueous solution
[11] = 96-well validation, 25,000 cells per well, 24 hrs
[12] = 96-well validation, 25,000 cells per well, 48 hrs
[13] = 96-well validation, 50,000 cells per well, 24 hrs
[14] = 96-well validation, 50,000 cells per well, 48 hrs
[15] = 384-well LDDN screen, 10,000 cells per well, 24 hrs
[16] = 384-well validation, 5,000 cells per well, 24 hrs
[17] = 384-well validation, 10,000 cells per well, 24 hrs

| Compound | EC50 (SMN2-luciferase reporter [1]; [6]) | EC50 (SMN2-luciferase reporter [1]; [7]) | Maximum % activation (SMN2-luciferase reporter [1]) | Active (SMN2-luciferase reporter [1]; reporter assay, Table 6) | Stabilityin liver microsomes [2] | Stability [2] | half-life [2, 8] | lifespan (SMA mice) | weight of the treated animals (SMA mice) | Time to right (SMA mice; PND 6) | Time to right (SMA mice; PND 7) | Time to right (SMA mice; PND 8) | Time to right (SMA mice; PND 9) | Time to right (SMA mice; PND 10) | Time to right (SMA mice; PND 11) | Time to right (SMA mice; PND 12) | Time to right (SMA mice; PND 13) | Time to right (SMA mice; PND 14) | Time to right (SMA mice; PND 15) | Time to right (SMA mice; PND 16) | other results |
| --- | --- | --- | --- | --- | --- | --- | --- | --- | --- | --- | --- | --- | --- | --- | --- | --- | --- | --- | --- | --- | --- |
| COc1cc2c(c(OC)c1OC)C(c1cc(Cl)ccc1F)CC(=O)N2 (stereo not shown) [LDN-212351] | 9.8 µM | 12 µM | 168.5 ± 10.6% | Yes | 45 min | 45 min | 45 min | extension of lifespan | increased | dead and Fail (Fail = >30 sec) (2×) and 3 seconds | dead and Fail (Fail = >30 sec) (2×) and 5 seconds | dead and Fail (Fail = >30 sec) (3×) | dead and 13 seconds and Fail (Fail = >30 sec) (2×) | dead and Fail (Fail = >30 sec) (3×) | dead (3×) and Fail (Fail = >30 sec) | dead (3×) and Fail (Fail = >30 sec) | dead (3×) and Fail (Fail = >30 sec) | dead (3×) and Fail (Fail = >30 sec) | dead | dead | Emax (SMN2-luciferase reporter [1]; Homo sapiens, HEK293, reporter assay, Table 6, read-out: Max % Activity): 150%; half-life ([2]; t1/2 in mouse liver microsomes, mouse liver microsomes): 45 min; Time to right (SMA mice; PND 17): dead; Time to right (SMA mice; PND 18): dead; Time to right (SMA mice; PND 19): dead; Time to right (SMA mice; PND 20): dead; solubility [3, 9]: 500 µM (≈ 183 µg/mL); solubility [3, 10]: < 500 µM |
| COc1cc2c(c(OC)c1OC)C(c1cc(Cl)ccc1F)NC(=O)N2 (stereo not shown) [LDN-212391] | 5 µM | 4.4 µM | 238.3 ± 28.5% | Yes | 13 to 20 min | 13 to 20 min | 13 min | extension of lifespan | increased | Fail (Fail = >30 sec) | Fail (Fail = >30 sec) | Fail (Fail = >30 sec) | Fail (Fail = >30 sec) (2×) and 18 seconds | Fail (Fail = >30 sec) (2×) and 20 seconds | Fail (Fail = >30 sec) | dead and Fail (Fail = >30 sec) (2×) | dead and Fail (Fail = >30 sec) (2×) | dead and Fail (Fail = >30 sec) (2×) | dead and Fail (Fail = >30 sec) (2×) | dead (2×) and Fail (Fail = >30 sec) | Max % Activity (SMN2-luciferase reporter [1]; reporter assay, Table 6): 267%; Time to right (SMA mice; PND 17): dead (2×) and Fail (Fail = >30 sec); Time to right (SMA mice; PND 18): dead (2×) and Fail (Fail = >30 sec); Time to right (SMA mice; PND 19): dead (2×) and Fail (Fail = >30 sec); Time to right (SMA mice; PND 20): dead; solubility [3, 9]: 1000 µM (≈ 367 µg/mL); solubility [3, 10]: 500 to 2000 µM (≈ 183 to 734 µg/mL) |
| CCCC(=O)[O-].[Na+] [Na-But] | – | – | – | – | – | – | – | – | – | – | – | – | – | – | – | – | – | – | – | – | Na-But RLU ave (SMN2-luciferase reporter [1]; [11]): 2046 RLU; Na-But RLU ave (SMN2-luciferase reporter [1]; [12]): 3696 RLU; Na-But RLU ave (SMN2-luciferase reporter [1]; [13]): 4798 RLU; Na-But RLU ave (SMN2-luciferase reporter [1]; [14]): 7505 RLU; Na-But RLU ave (SMN2-luciferase reporter [1]; [15]): 13894 RLU; Na-But RLU ave (SMN2-luciferase reporter [1]; [16]): 1332 RLU; Na-But RLU ave (SMN2-luciferase reporter [1]; [17]): 39287 RLU; Na-But RLU ave (SMN2-luciferase reporter [4]; 0.5 mg/mL sodium butyrate, 384-well validation, 7,500 cells per well, 24 hrs): 2832 RLU |
| CCCC(=O)[O-].[Na+] [sodium butyrate, reference compound] | – | – | – | – | – | – | – | – | – | – | – | – | – | – | – | – | – | – | – | – | S/B (SMN2-luciferase reporter [1]; [11]): 3.0; S/B (SMN2-luciferase reporter [1]; [13]): 3.5; S/B (SMN2-luciferase reporter [1]; [14]): 2.9; S/B (SMN2-luciferase reporter [1]; [16]): 2.6; S/B (SMN2-luciferase reporter [1]; [17]): 4.9; increase of luciferase activity (SMN2-luciferase reporter [1]; 96-well format, sodium butyrate): more than 3 fold; EC50 (SMN2-luciferase reporter [1]; Homo sapiens, HEK293): 1000 µg/mL; Max. fold increase (SMN2-luciferase reporter [1]; cell-based reporter response to known SMN2 modulating compounds): 10 fold; exon 7 included full-length SMN-luciferase transcripts [5]: increased; total SMN-luciferase transcripts [5]: increased; S/B (SMN2-luciferase reporter [4]; [12]): 2.6; S/B (SMN2-luciferase reporter [4]; [15]): 3.0; S/B (SMN2-luciferase reporter [4]; 384-well validation, 7,500 cells per well, 24 hrs): 2.8 |
